Data taken from PubChem BioAssay AID1996.
Converted amounts (≈) assume the structure as drawn.

conditions: buffer; pH 7.4; 200.0 µM

| Compound | solubility kinetic [mg/mL] |
| --- | --- |
| O=C(/C=C/c1ccccc1Cl)N1CCOCC1 | 0.0366 (≈ 145 µM) |
| Cc1cc2c(sc3ccccc32)c(C)n1.Cl | 0.0037 |
| C=CCSc1nc(C)c(CCCC)c(=O)[nH]1 | > 0.0358 |
| O=C(c1ccc(-c2cccc(Cl)c2Cl)o1)N1CCOCC1 | 0.0471 (≈ 144 µM) |
| O=C(NC1CCS(=O)(=O)C1)c1ccccc1Cl (stereo unspecified) | > 0.0411 |
| Cc1ccc(C(=O)C2=C(O)C(=O)N(Cc3ccco3)C2c2cccc(Cl)c2)o1 (stereo unspecified) | > 0.0597 |
| c1ccc(-n2cc(CN3CCCC3)c(-c3ccc4c(c3)OCO4)n2)cc1 | > 0.0521 |
| COc1ccc(-c2csc3ncnc(Cl)c23)cc1 | 0.0006 (≈ 2.17 µM) |
| COc1ccc(CNC(=O)c2cc(C(=O)C3CC3)c[nH]2)cc1 | 0.002 (≈ 6.7 µM) |
| CN(C(=O)CSc1nc2scc(-c3ccccc3)c2c(=O)[nH]1)c1ccccc1 | 0.0112 (≈ 27.5 µM) |
| CCOC(=O)N1CCC(NC(=O)c2ccc(Cl)cc2)CC1 | > 0.0466 |
| COc1ccc(C(=O)COc2ccccc2C(N)=O)cc1 | 0.0316 (≈ 111 µM) |
| O=C(COc1ccc(C(=O)c2ccccc2)cc1)Nc1cccnc1 | > 0.0499 |
| CNc1nc(Cl)c(SC)c(NCc2ccc(F)cc2)n1 | 0.0006 (≈ 1.92 µM) |
| O/N=C/c1ccc2cccc(OCc3ccccc3)c2n1 | 0.0021 (≈ 7.55 µM) |
| CCSC1=NCCN1C(=O)C(C)(C)Oc1ccc(Cl)cc1 | 0.0098 (≈ 30 µM) |
| COc1ccc(-c2cc(-c3ccc(O)cc3)nc(N)c2C#N)cc1 | 0.0008 (≈ 2.52 µM) |
| Cc1ccc(OC(=O)CCC(=O)Nc2ccc(C(N)=O)cc2)cc1 | > 0.049 |
| COC(=O)[C@H](CCSC)NC(=O)Nc1cccc(C)c1C | 0.0371 (≈ 120 µM) |
| CCCN1CCC(NC2CCC(O)CC2)CC1 (stereo unspecified) | 0.0271 (≈ 113 µM) |
| Cc1ccc(NC(=O)CCNC(=O)c2ccco2)cc1Cl | 0.0203 (≈ 66.2 µM) |
| CCS(=O)(=O)N1CCC(C(=O)Nc2cc(C)ccc2O)CC1 | > 0.049 |
| CCc1ccc(NC(=O)CCc2ccc(CC)o2)cc1 | 0.004 (≈ 14.7 µM) |
| CCc1ccc(C(C)NC(=S)NCc2ccc(F)cc2)cc1 (stereo unspecified) | 0.001 (≈ 3.16 µM) |
| Cc1ccc(OCc2nc(C#N)c(N3CCCCC3)o2)cc1 | 0.0049 (≈ 16.5 µM) |

| Compound | solubility kinetic [mg/mL] |
| --- | --- |
| COC(=O)C1=C(Nc2cc(Cl)cc(Cl)c2)CSC1 | < 0.0007 |
| CN(C)c1ccc(/C=N/O)cc1 | > 0.0246 |
| Clc1ccc(Nc2ccc3ccccc3n2)cc1 | < 0.0003 |
| O=C(Cn1ccc(=O)[nH]c1=O)NCCO | > 0.032 |
| CCn1c(=S)[nH]c2sc3c(c2c1=O)CCCC3 | 0.0092 (≈ 34.5 µM) |
| Cc1ccc2c(c1)N(CC(=O)N1CCCC1)C(=O)CO2 | > 0.0411 |
| Cn1c(=O)n(CCc2ccccc2)c2ccccc21 | 0.0292 (≈ 116 µM) |
| CC1(C(=O)NC2CCCCC2)CCC(=O)N1Cc1ccc2c(c1)OCO2 (stereo unspecified) | 0.0444 (≈ 124 µM) |
| O=C(Nc1ccc2c(c1)OCO2)Nc1ccc(F)cc1F | 0.0009 (≈ 3.08 µM) |
| CC(NC(=O)c1ccc(N)cc1)c1ccccc1 (stereo unspecified) | > 0.036 |
| O=C(CN1CCN(c2ccccc2)CC1)NCc1ccc(F)cc1 | > 0.0491 |
| CCOC(=O)C(=CNc1ccc2c(c1)CCN2C(C)=O)C(=O)OCC | 0.0099 (≈ 28.6 µM) |
| Cc1ccc(C(=O)N[C@H](C(=O)NC2CCCCC2)C(C)C)cc1 | 0.008 (≈ 25.3 µM) |
| COc1cc(C(=O)c2ccccc2)c([N+](=O)[O-])cc1OC | > 0.0431 |
| Nc1ccc(-c2cc3ccccc3oc2=O)cc1 | 0.0179 (≈ 75.4 µM) |
| CC(=O)N(Cc1ccccn1)Cc1ccco1 | > 0.0345 |
| O=[N+]([O-])c1ccc(N2CCOCC2)cc1O | > 0.0336 |
| OC(c1ccc(F)cc1)C(CN1CCOCC1)c1ccccc1 (stereo unspecified) | > 0.0473 |
| O=C(Nc1cccc(Cl)c1)Nc1ccccc1C(=O)O | > 0.0436 |
| CC(=O)Nc1ccccc1C(=O)C(=O)NCCc1ccccc1 | 0.0405 (≈ 130 µM) |
| Cc1cc(C(=O)NCc2nc(-c3ccccc3)no2)ccc1[N+](=O)[O-] | 0.0189 (≈ 55.9 µM) |
| O=C(O)c1cc([N+](=O)[O-])c(Sc2nc3ccccc3[nH]2)c([N+](=O)[O-])c1 | > 0.054 |
| CCN(C(=O)CCc1ccccc1)C1CCCCC1 | 0.0268 (≈ 103 µM) |
| CCN(Cc1ccncc1)Cc1c(O)ccc2ccccc12 | 0.0311 (≈ 106 µM) |
| O=C(CSc1nc(-c2ccc(F)cc2)cs1)NCC1CCCO1 (stereo unspecified) | > 0.0529 |

| Compound | solubility kinetic [mg/mL] |
| --- | --- |
| CC(=O)c1c(C)nc(-c2cccc([N+](=O)[O-])c2)n1O | > 0.0392 |
| Cc1ccc(C(=O)OCC(=O)NC(=O)Cc2ccccc2)c(O)c1 | 0.012 (≈ 36.7 µM) |
| O=C(Nc1ccccc1C(=O)O)C1=NN=CC1 | > 0.0347 |
| CCNC(=O)Cn1cc(C(F)(F)F)cc(Cl)c1=O | > 0.0424 |
| Cc1nc2ccccc2n1CC(=O)c1ccccc1 | 0.037 (≈ 148 µM) |
| CCOc1ncccc1C(=O)Nc1cc(C(F)(F)F)ccc1N1CCOCC1 | 0.0041 (≈ 10.4 µM) |
| N/C(=N/[N+](=O)[O-])N1CCN(C(=O)Oc2ccc([N+](=O)[O-])cc2)CC1 | > 0.0507 |
| Cc1ccc(NC(=O)C2CCCCC2C(=O)O)cc1C (stereo unspecified) | 0.0404 (≈ 147 µM) |
| CC1COc2ccccc2N1C(=O)c1ccc(Cl)cc1 (stereo unspecified) | 0.0313 (≈ 109 µM) |
| COc1cccc(-c2nc(NCc3cccnc3)c3ccccc3n2)c1O | 0.0003 (≈ 0.837 µM) |
| CC(C)(C)C(=O)Nc1cc2c3c(c1)CCC(=O)N3CCC2 | 0.04 (≈ 140 µM) |
| CC(=O)c1ccc(NC(=O)C2CCCO2)cc1 (stereo unspecified) | > 0.035 |
| CN1CCN(C(=O)CCN2C(=O)/C(=C\c3ccc(F)cc3)SC2=S)CC1 | 0.0223 (≈ 56.7 µM) |
| O=C(CCc1ccccc1)NC(=S)Nc1ccc2c(c1)C(=O)OC2 | < 0.0004 |
| OC(CN1CCCC(C(F)(F)F)C1)c1ccccc1 (stereo unspecified) | 0.0311 (≈ 114 µM) |
| Cc1cc(Br)cc(C=Nc2ccc(N3CCOCC3)cc2)c1O | 0.0061 (≈ 16.3 µM) |
| Cc1ccc(NC(=O)CN2CCOCC2)cc1 | > 0.0351 |
| CCC(Cc1ccccc1)NC(=O)CCc1ccccc1 (stereo unspecified) | > 0.0422 |
| COCc1nc2oc3ccccc3c(=O)c2cc1C(=O)OC | 0.0197 (≈ 65.8 µM) |
| Cc1noc(NS(=O)(=O)c2ccc(NC(=O)COc3ccc(C#N)cc3)cc2)c1C | > 0.064 |
| COC(OC)c1ccnc(SCc2ccccc2Cl)n1 | 0.0176 (≈ 56.6 µM) |
| COc1cccc(C(=O)NCc2ccc3c(c2)OCO3)c1OC | > 0.0473 |
| CCOc1ccc(C(C)=O)cc1COc1cccnc1[N+](=O)[O-] | 0.006 (≈ 19 µM) |
| Cc1ccc(S(=O)(=O)N2CC(=O)NC(=O)C2)cc1 | > 0.0402 |
| Cc1ccc(OCC(=O)Nc2cc(C)on2)c([N+](=O)[O-])n1 | 0.018 (≈ 61.6 µM) |

| Compound | solubility kinetic [mg/mL] |
| --- | --- |
| CC(=O)Oc1ccc2nc(-c3ccco3)oc(=O)c2c1 | 0.0277 (≈ 102 µM) |
| Oc1cccc(Nc2nc(-c3ccccc3)nc3ccccc23)c1 | 0.0022 (≈ 7.02 µM) |
| Cc1ccccc1NC(=O)c1cccc(NC(=O)c2c(C(=O)O)cccc2[N+](=O)[O-])c1 | 0.0561 (≈ 134 µM) |
| CSc1ccc(CNCc2ccco2)cc1.Cl | > 0.0405 |
| S=C(NCc1cccnc1)c1ccccc1 | > 0.0342 |
| Cc1cc(NC(=O)CN2C(=O)NC(CC(C)C)C2=O)no1 (stereo unspecified) | > 0.0441 |
| COC(=O)c1ccc(NC(=S)NCCc2ccc(OC)cc2)cc1 | 0.0008 (≈ 2.32 µM) |
| CCOC(=O)Cc1csc(NC(=O)Nc2cccs2)n1 | 0.0184 (≈ 59.1 µM) |
| COc1ccccc1N1CCN(C(=O)c2cc(C(C)(C)C)oc2C)CC1 | 0.0418 (≈ 117 µM) |
| Oc1ccc(-c2nccc(-c3ccc(Br)cc3)n2)cc1 | 0.0004 (≈ 1.22 µM) |
| CN(CC(=O)O)S(=O)(=O)c1ccc2c(c1)n(C)c(=O)c(=O)n2C | > 0.0512 |
| CCOC(=O)C1CCN(C(=O)COC(=O)c2ccccc2OCC)CC1 | > 0.0545 |
| O=C(Nc1ccc(NC(=O)c2cccs2)cc1Cl)c1ccco1 | 0.0011 (≈ 3.17 µM) |
| Cc1cc(C)nc(SCc2c(F)cccc2Cl)n1 | < 0.0003 |
| OCc1ccc(OCCCOc2cccc3cccnc23)cc1 | 0.0305 (≈ 98.6 µM) |
| Cc1nn(CC(=O)NCc2cccnc2)c(C)c1[N+](=O)[O-] | > 0.0434 |
| CCN(CC(=O)N1CCCC1)S(=O)(=O)c1cc(C)ccc1OC | 0.0495 (≈ 145 µM) |
| CSc1ccccc1NC(=O)CN(C)CC(=O)Nc1ccc(S(=O)(=O)N2CCCC2)cc1 | 0.0013 (≈ 2.73 µM) |
| COc1ccccc1OCCOCCN1CCCC1 | 0.0382 (≈ 144 µM) |
| CC1CC1C(=O)Nc1cc(C(F)(F)F)ccc1N1CCOCC1 (stereo unspecified) | 0.0409 (≈ 125 µM) |
| Cc1ccc(C(C)NC(=O)Cc2cccs2)cc1C (stereo unspecified) | > 0.041 |
| O=C(COc1ccc([N+](=O)[O-])cc1Cl)N1CCc2ccccc21 | 0.0024 (≈ 7.21 µM) |
| CCCCNC(=O)c1cc2cc(CC)ccc2[nH]1 | 0.0019 (≈ 7.78 µM) |
| CCC(C)c1ccccc1NC(=O)C(C)OC(=O)c1ccco1 (stereo unspecified) | > 0.0473 |
| Cc1cc[n+](CC(=O)Nc2cccc(C)c2)cc1.[Cl-] | > 0.0415 |

| Compound | solubility kinetic [mg/mL] |
| --- | --- |
| COc1ccc(CC(=O)OCC(=O)Nc2cccc(Cl)c2)cc1 | 0.034 (≈ 102 µM) |
| CC(=O)Nc1ccc(OCCOc2ccccc2C(C)=O)cc1 | > 0.047 |
| CCOc1ccc(N2CC(C(=O)N3CC(C)OC(C)C3)CC2=O)cc1 (stereo unspecified) | > 0.052 |
| O=Cc1c(NC2CCCCC2)c2ccccc2[nH]c1=O | 0.0352 (≈ 130 µM) |
| O=c1nc(Nc2ccc([N+](=O)[O-])cc2)[nH]c(=O)[nH]1 | 0.0262 (≈ 105 µM) |
| CCn1ncc(-c2ccnc3cc(C(=O)O)nn23)c1C | > 0.0407 |
| COc1ccc(S(=O)(=O)NCc2cccnc2)cc1C | > 0.0439 |
| CCCN1CCC(NC(=O)C2CC=CCC2C(=O)O)CC1 (stereo unspecified) | > 0.0442 |
| COc1ccc(S(=O)(=O)NCCc2ccco2)cc1OC | > 0.0467 |
| CSc1ncccc1C(=O)Nc1cc(C)ccn1 | > 0.0389 |
| COc1ccc(CNC(=O)Cn2cncn2)cc1OC | > 0.0414 |
| COc1ccc(CCNC(=O)c2ccnc(C(C)(C)C)c2)cc1OC | > 0.0514 |
| CCCCc1cc(=O)oc2cc(OCC(=O)N3CCOCC3)ccc12 | 0.0192 (≈ 55.6 µM) |
| CCOc1ccc(S(=O)(=O)NCc2cccnc2)c2ccccc12 | 0.0385 (≈ 112 µM) |
| O=C1OC(N2C(=O)CC[C@H]2C(=O)NCC2CCCO2)c2ccccc21 (stereo partly specified) | > 0.0517 |
| Cc1cc(/C=C2\SC(=S)NC2=O)c(C)n1-c1ccccc1 | 0.0033 (≈ 10.5 µM) |
| CCOc1ccccc1NC(=O)NCc1cccnc1 | > 0.0407 |
| O=C(NC1CC1)c1cc2cc(Br)ccc2s1 | < 0.0006 |
| CN1c2ccccc2C(=O)/C(=C\Nc2ccc(F)cc2)S1(=O)=O | < 0.0004 |
| Cc1ccc(C)c(N=Cc2c(O)c3ccccc3oc2=O)c1 | 0.0016 (≈ 5.45 µM) |
| CC(NC(=O)c1ccccc1)C(=O)N/N=C/c1ccccc1 (stereo unspecified) | > 0.0443 |
